According to patent US10098347B2, “Methods of improving growth and stress tolerance in plants” (Valent BioSciences LLC, priority 2016, dated 2018):

How the values were obtained:
Assay type in all cases: in vivo
[1] = test system: Italian large leaf basil (Ocimum basilicum) seedlings; experiment: Chilling tolerance assay in basil seedlings (24-well plates)
Experimental: To determine the capacity of glycine betaine (“GB”) to confer thermo-tolerance, both singly and in combination with (S)-abscisic acid (“(S)-ABA”), chilling (i.e. cold) tolerance assays were performed using Italian large leaf basil (Ocimum basilicum) seedlings. Basil seeds were sterilized in an ethanol solution containing 0.16% Maxim® XL fungicide (Maxim is a registered trademark of and available from Syngenta Corporation). The sterilized seeds were germinated on ½×Murashige and Skoog Basal Salt Media, supplemented with 1× Gamborg's Vitamins and 0.6% Phytagar, and dispensed into 24-well plates. […]
After five days, concentrated solutions of GB and/or (S)-ABA were added as an overlay in 0.4% Phytagar. […] The seedlings were subjected to chilling stress for six days, after which time they were transferred back to the ambient temperature chamber, and scored after a six-day recovery period.
Individual wells contained indicated amounts of GB and/or (S)-ABA. […] GB was evaluated singly at concentrations of 0, 3,000, 10,000, 30,000, and 100,000 milligrams per liter (“mg/l”.) To test whether there was a synergistic interaction between GB and (S)-ABA, glycine betaine was added to the media at concentrations of 0, 1,000, 3,000, 10,000, and 30,000 mg/l, whereas (S)-ABA was held at a concentration of 3 mg/l. […]

[2] = test system: Cucumber (Cucumis sativa var. Straight Eight); experiment: Post-chilling damage in cucumber following spray treatment
Experimental: A laboratory study was conducted at Long Grove, Ill. Cucumber (Cucumis sativa var. Straight Eight) seeds were sown in Pro-Mix® BX potting soil (Pro-Mix is a registered trademark of and available from Premier Horticulture Ltd.) and plants were grown in a CONVIRON® growth chamber at 25° C. under a 16:8 (light:dark) photoperiod. At 15 days post-sowing, plants were subjected to sprays with a portable Preval® paint sprayer. All spray solutions were made up in deionized water and a non-ionic surfactant was added to all spray solutions at 0.05% (v/v). At 48 hours post-spraying, plants were moved to a CONVIRON® growth chamber and subjected to a temperature of 4° C. for 48 hours under a 12:12 (light:dark) photoperiod. Upon removal from the cold chamber, plants were returned to a CONVIRON® growth chamber set at 25° C. under a 16:8 (light:dark) photoperiod. The plants were visually scored for chilling damage at 72 hours post-chilling. Each treatment was replicated seven times. […] Using the following formula, Applicant was able to determine that the response to the GB:(S)-ABA ratio was synergistic, in which a synergy factor is calculated by the […]: % Cexp=A+B−(AB/100), where % Cexp is the expected efficacy and “in which A and B are the increase in growth (or resistance to stress) levels given by the single [plant growth regulators]. If the ratio between the experimentally observed efficacy of the mixture Cobs and the expected efficacy of the mixture is greater than 1, synergistic interactions are present in the mixture” (Gisi, Synergistic Interaction of Fungicides in Mixtures, The American Phytopathological Society, 86:11, 1273-1279, 1996). To be conservative Applicant has set the minimum synergy factor to 1.1 throughout the Examples. Applicant determined synergy to be present at the following ratios of GB:(S)-ABA: 1:1 (synergy factor 3.74); 3.3:1 (synergy factor 2.68) and 10:1 (synergy factor 1.24).

[3] = test system: Italian sweet basil; experiment: Chilling damage of Italian sweet basil following spray treatment (Example 3)
Experimental: (§1) A laboratory study was conducted at Long Grove, Ill. Italian sweet basil seeds were sown in Pro-Mix® BX potting soil and plants were grown at room temperature under cool-white fluorescent lights under a 16:8 (light:dark) photoperiod. At 22 days post-sowing, plants were subjected to sprays with a portable Preval® paint sprayer. At 48 hours post-spraying, plants were moved to a CONVIRON® growth chamber and subjected to a temperature of 4° C. for 72 hours under a 12:12 (light:dark) photoperiod. Upon removal from the cold chamber, plants were returned to the laboratory and placed again under the cool white fluorescent lamps until they were visually scored for chilling damage at 24 hours and 72 hours post-chilling. Each treatment was replicated seven times.

[4] = test system: Italian sweet basil; experiment: Chilling damage of Italian sweet basil following spray treatment (Example 4)
Experimental: as §1, with “the cool-white” for “the cool white”, “and 120” for “and 72”

[5] = test system: Corn; experiment: Stomatal conductance of corn following spray; conditions: for % of Control Conductance 3 days: 3 days post-spray; for % of Control Conductance 4 days: 4 days post-spray
Experimental: A greenhouse study was conducted at Long Grove, Ill. Seeds of a commercial hybrid variety were sown in Pro-Mix® BX in three-liter pots. Greenhouses were kept at 25±3° C. under a 16:8 hour (light:dark) photoperiod, with illumination at canopy level of ˜250 μmoles m-2 s-1. Corn was typically fertigated with Peters 21-5-20+ micronutrients, calcium ammonium nitrate and magnesium sulfate. Typical growth rates for corn under these conditions ranged from 4 to 5 centimeters per day.
In this study, spray applications were made to corn at stage V4. These applications were made in a track sprayer outfitted with a 4001E Teejet® nozzle (Teejet is available from and a registered trademark of Spraying Systems Co., Glendale Heights, Ill., USA) and applied at 40 pounds per square inch and at 30 gallons/acre of spray solution. Following spray applications, plants were returned to the greenhouse.
At 3 and 4-days post spray application, stomatal conductance of the 4th true leaf was measured using a Licor Model 6400 XT photosynthesis meter (Licor, Lincoln, Neb.) used according to the manufacturer's directions. For ease of analysis, stomatal conductance values are expressed as a percent of control in Table 5 below.

[6] = single agent spray 300 mg/l, 72 hours post-chilling (4° C. 48 h)
[7] = single agent spray 300 mg/l, 4° C. 72 h

In the case of `C[N+](C)(C)CC(=O)[O-]` [GB, Glycine betaine], the “Protection against chilling injury” value ([1]; 30,000 mg/l GB alone) is reported as “equivalent protection as ˜20 mg/l (S)-ABA”, the “% Leaf Area Damaged” value [2, 6] is reported as 84.3% and the “% Leaf Area Damaged” value ([2]; single agent spray 1,000 mg/l, 72 hours post-chilling) is reported as 82.1%. For the same compound, the “% Leaf Area Damaged” value ([2]; single agent spray 3,000 mg/l, 72 hours post-chilling) was 46.4%, the “% Leaf Area Damaged 24 h post-chilling” value ([3]; single agent spray 3,000 mg/l) was 67% and the “% Leaf Area Damaged 72 h post-chilling” value ([3]; single agent spray 3,000 mg/l) was 79%. For the same compound, the “% Leaf Area Damaged 24 h post-chilling” value ([3]; single agent spray 20,000 mg/l) was 45%, the “% Leaf Area Damaged 72 h post-chilling” value ([3]; single agent spray 20,000 mg/l) was 65% and the “% Leaf Area Damaged 24 h post-chilling” value ([4]; single agent spray 10,000 mg/l) was 39.17%. For the same compound, the “% Leaf Area Damaged 120 h post-chilling” value ([4]; single agent spray 10,000 mg/l) was 56.67%, the “% Leaf Area Damaged 24 h post-chilling” value ([4]; single agent spray 30,000 mg/l) was 40.00% and the “% Leaf Area Damaged 120 h post-chilling” value ([4]; single agent spray 30,000 mg/l) was 50.00%. For the same compound, the “% of Control Conductance 3 days” value ([5]; single agent spray 1,000 mg/l) was 86.2 % of Control and the “% of Control Conductance 4 days” value ([5]; single agent spray 1,000 mg/l) was 97.9 % of Control.

In the case of `CC1=CC(=O)CC(C)(C)[C@@]1(O)/C=C/C(C)=C/C(=O)O` [(S)-ABA, (S)-abscisic acid], the Chilling injury ([1]; 20 ppm (S)-ABA alone (positive control)) is reported as ““++” denotes little to no chilling injury; equivalent to 20 ppm (S)-ABA alone”, the “% Leaf Area Damaged” value [2, 6] is reported as 52.9% and the “% Leaf Area Damaged 72 h post-chilling” value ([3]; single agent spray 300 mg/l) is reported as 27%. The “% Leaf Area Damaged 24 h post-chilling” value [3, 7] was 12%, the “% Leaf Area Damaged 24 h post-chilling” value ([3]; single agent spray 1,000 mg/l) was 6% and the “% Leaf Area Damaged 72 h post-chilling” value ([3]; single agent spray 1,000 mg/l) was 14%. The “% Leaf Area Damaged 120 h post-chilling” value ([4]; single agent spray 300 mg/l) was 41.00%, the “% Leaf Area Damaged 24 h post-chilling” value [4, 7] was 23.00% and the “% Leaf Area Damaged 24 h post-chilling” value ([4]; single agent spray 1,000 mg/l) was 11.67%. The “% Leaf Area Damaged 120 h post-chilling” value ([4]; single agent spray 1,000 mg/l) was 21.67%, the “% of Control Conductance 4 days” value ([5]; single agent spray 100 mg/l) was 91.8 % of Control and the “% of Control Conductance 3 days” value ([5]; single agent spray 100 mg/l, corn stage V4, 4th true leaf) was 81.3 % of Control. For the same compound, the “% of Control Conductance 3 days” value ([5]; single agent spray 300 mg/l) was 73.6 % of Control, the “% of Control Conductance 4 days” value ([5]; single agent spray 300 mg/l) was 88.7 % of Control and the “% of Control Conductance 3 days” value ([5]; single agent spray 1,000 mg/l) was 76.5 % of Control. For the same compound, the “% of Control Conductance 4 days” value ([5]; single agent spray 1,000 mg/l) was 95.9 % of Control, the “% of Control Conductance 3 days” value ([5]; single agent spray 3,000 mg/l) was 55.3 % of Control and the “% of Control Conductance 4 days” value ([5]; single agent spray 3,000 mg/l) was 77.5 % of Control.
